Data taken from patent US11517600B2, “Use of Crassocephalum rabens extract in the treatment of breast cancer” (ACADEMIA SINICA, priority 2018, dated 2022).

Assays:
[1] = tested on: MDA-MB-231 (ER−, PR− and Her2− TNBC cells); assay: MTT cell viability assay, MDA-MB-231; type: cell-based; settings: human derived TNBC cells, 24 hours
Method: (§1) Immortalized normal human mammary epithelial cells (MCF10A) and breast cancer cell lines including HER2+ (SKBR3), ER+ (MCF7), triple negative (MDA-MB-231), and murine TNBC cell line 4T1 were obtained from the ATCC (USA). Cells were expanded and frozen at low passage after the receipt of the original stocks. Cells were thawed and used within 15 passages.
(§2) Cells (3×10^3 cells/well) were seeded in 96-well plates overnight and treated for 24 hours. Cell growth was determined by MTT-based colorimetric assay. Viability of the cells treated with vehicle-only (0.5% DMSO) was defined as 100% viability. Cell survival after compound treatment was calculated using the following formula: viable cell number (%)=[OD570 (treated cells)/OD570 (vehicle control)]×100.

Rac1 = assay: Western blot of tumor tissues, Rac1; type: in vivo, mice; settings: high dose dLGG (25 mg/kg), Dox5, Dox5+dLGG5
Method: (§3) The therapeutic effects of dLGG or dLGG-enriched CR-API fractions from C. rabens against TNBC were evaluated using an orthotopic tumor model. Briefly, mice were subcutaneously injected with 4T1 (murine TNBC) cells (5×10^6 cells per 100 μl PBS and 50 μl matrigel per mouse) into the fourth mammary fat pad under isoflurane anaesthesia. Tumor growth and body weight are monitored daily. After tumors grow to an approximate size of 150 mm^3 at day 7 post implantation, test mice are randomized into different groups (8 mice per group) and subjected to a three-week compound treatment scheme (FIG. 2). […] Dosage and frequency of doxorubicin treatment is based on maximum tolerable dose determined from in house toxicity experiments within the concentration range commonly used in animal studies (Bao L, Haque A, Jackson K, et al. (2011) Increased Expression of P-Glycoprotein Is Associated with Doxorubicin Chemoresistance in the Metastatic 4T1 Breast Cancer Model. The American Journal of Pathology. 2011; 178 (2):838-852). Effects of drug/compound/extracts are evaluated thrice a week by monitoring tumor size and body weight. Euthanasia by cervical dislocation are performed at day 30 post tumor implantation. […]

[2] = tested on: TNBC metastatic tumor nodules in liver; assay: Distal metastasis to the liver (H&E, Ki-67 IHC); type: in vivo, mice; settings: day 30; all dose groups (dLGG5, dLGG25, CR-API200, CR-API400, Dox5, Dox5+dLGG5) vs tumor control
Method: as §3

[3] = tested on: TNBC metastatic tumor nodules in lung; assay: Distal metastasis to the lungs (H&E, Ki-67 IHC); type: in vivo, mice; settings: for tumor metastasis nodules in the lung tissues: day 30, all dose groups (dLGG5, dLGG25, CR-API200, CR-API400, Dox5, Dox5+dLGG5) vs tumor control
Method: (§4) The therapeutic effects of dLGG or dLGG-enriched CR-API fractions from C. rabens against TNBC were evaluated using an orthotopic tumor model. Briefly, mice were subcutaneously injected with 4T1 (murine TNBC) cells (5×10^6 cells per 100 μl PBS and 50 μl matrigel per mouse) into the fourth mammary fat pad under isoflurane anaesthesia. Tumor growth and body weight are monitored daily. After tumors grow to an approximate size of 150 mm^3 at day 7 post implantation, test mice are randomized into different groups (8 mice per group) and subjected to a three-week compound treatment scheme (FIG. 2). […] Dosage and frequency of doxorubicin treatment is based on maximum tolerable dose determined from in house toxicity experiments within the concentration range commonly used in animal studies (Bao L, Haque A, Jackson K, et al. (2011) Increased Expression of P-Glycoprotein Is Associated with Doxorubicin Chemoresistance in the Metastatic 4T1 Breast Cancer Model. The American Journal of Pathology. 2011; 178 (2):838-852). Effects of drug/compound/extracts are evaluated thrice a week by monitoring tumor size and body weight. Euthanasia by cervical dislocation are performed at day 30 post tumor implantation. Tumors, organ tissues (lungs, liver, kidneys, spleen) and serum were immediately collected and allocated either for western blotting (immediately flash frozen using N2 and stored at −80° C.) or for paraffin fixation (immediately soaked in 10% formalin solution for at least one week). Paraffin-embedded tissues were stored at room temperature.
(§5) Tumor and organ tissues were fixed in 10% buffered formalin and embedded in paraffin. Paraffin-embedded samples were sectioned (6 μm) and underwent hemotoxylin and eosin (H&E) or immunohistochemical (IHC) staining. Paraffin-embedded tissue sections were heat immobilized and deparaffinized using xylene and rehydrated in a graded series of ethanol with a final wash in distilled water. For antigen retrieval, citrate retrieval buffer and Decloaking Chamber (Biocare Medical) were used. Images were captured using AxioVision software (Carl Zeiss MicroImaging, Inc.).

[4] = tested on: SKBR3 (Her2+ breast cancer cells); assay: MTT cell viability assay, SKBR3; type: cell-based; settings: Homo sapiens, SK-BR-3; SKBR3, 24 hours, tested concentration range 5-100 μM
Method: as §1, §2

FAK = assay: Western blot of tumor tissues, FAK phosphorylation; type: in vivo, mice; settings: high dose dLGG (25 mg/kg), high dose CR-API (400 mg/kg), Dox5, Dox5+dLGG5
Method: as §3

COX-2 [5] = assay: Western blot of tumor tissues, COX-2; type: in vivo, mice; settings: all dLGG and CR-API groups, Dox5+dLGG5 compared with Dox5 alone
Method: as §3

CYP2C19 = assay: Western blot of tumor tissues, CYP2C19; type: in vivo, mice; settings: all dLGG and CR-API groups, Dox5+dLGG5 compared with Dox5 alone
Method: as §3

[6] = tested on: 4T1 (murine TNBC) orthotopic tumor; assay: 4T1 orthotopic breast cancer model: tumor growth and survival; type: in vivo, mice; settings: for reduced tumor volumes compared with the tumor control group: endpoint day 30; for tumor volume compared with the tumor control: Dox 5 mg/kg every 3 days i.v. (P<0.0001), Dox5+dLGG5 (P=0.0015), dLGG 25 mg/kg daily o.p. (P=0.0015)
Method: Female BALB/cByJNar1 mice (4-week-old) were supplied from National Laboratory Animal Center, Taipei, Taiwan and given a standard laboratory diet and distilled water ad libitum and kept on a 12-h light/dark cycle at 22±2° C. This study was conducted according to the institutional guidelines and approved by the Institutional Animal Care and Utilization Committee (IACUC) of Academia Sinica, Taiwan.
as §4

4T1 TNBC cells = assay: MTT cell viability assay, 4T1; type: cell-based; settings: Mus musculus, murine derived TNBC cells 4T1, 24 hours
Method: as §1, §2

Ki67 = assay: IHC of Ki67 in tumor tissues; type: in vivo, mice; settings: day 30, dLGG and CR-API regardless of dose, Dox5, Dox5+dLGG5, vs tumor control
Method: as §3

[7] = tested on: MCF7 (ER+ breast cancer cells); assay: MTT cell viability assay, MCF7; type: cell-based; settings: Homo sapiens; MCF7, 24 hours, tested concentration range 5-100 μM
Method: as §1, §2

Cav-1 = assay: Western blot of tumor tissues, Cav-1; type: in vivo, mice; settings: high dose dLGG (25 mg/kg), Dox5, Dox5+dLGG5
Method: as §3

cleaved caspase-3 = assay: IHC of cleaved caspase-3 in tumor tissues; type: in vivo, mice; settings: for caspase-3 expression compared with the low dose treatments and the Dox5+dLGG5 combination: day 30, Dox 5 mg/kg i.v., CR-API 400 mg/kg, dLGG 25 mg/kg daily o.p.; for cleaved caspase-3 expression in tumor tissues compared with the vehicle control: day 30, all treatment groups
Method: as §4, §5

Src (p-Src^419) = assay: Western blot of tumor tissues, Src activation; type: in vivo, mice; settings: all dLGG and CR-API treatments, Dox5+dLGG5, Dox5
Method: as §3

[8] = Body weight of tumor-implanted mice; type: in vivo
Method: as §3

COX-2 [9] = assay: IHC of COX-2 in liver and lung tissues; type: in vivo, mice; settings: day 30, dLGG 5 and 25, CR-API 200 and 400 mg/kg daily o.p., Dox 5 mg/kg every 3 days i.v., Dox5+dLGG5
Method: as §3

[10] = tested on: MCF10A (normal mammary epithelial cells); assay: MTT cell viability assay, MCF10A; type: cell-based, human; settings: 24 h treatment
Method: as §1, §2

[11] = dLGG 25 mg/kg, CR-API 400 mg/kg daily o.p., Dox 5 mg/kg every 3 days i.v., Dox5+dLGG5

SMILES | Rac1 expression level in tumor tissues (Rac1) | tumor metastasis nodules in the liver tissues [2] | metastatic tumor nodules in lung (H&E) [3, 11] | tumor metastasis nodules in the lung tissues [3] | phosphorylation of FAK in tumor tissues (FAK) | tumor volume compared with the tumor control ([6]; day 30) | Cav-1 expression level in tumor tissues (Cav-1) | caspase-3 expression compared with the low dose treatments and the Dox5+dLGG5 combination (cleaved caspase-3) | cleaved caspase-3 expression in tumor tissues compared with the vehicle control (cleaved caspase-3) | activation of Src (p-Src^419) in tumor tissues compared with the tumor control (Src (p-Src^419)) | COX-2 expression in liver and lung tissues (COX-2 [9]) | also measured
CC/C=C\C/C=C\C/C=C\CCCCCCCC(=O)OC[C@H](CO[C@@H]1O[C@H](CO)[C@H](O)[C@H](O)[C@H]1O)OC(=O)CCCCCCC/C=C\C/C=C\C/C=C\CC [dLGG, 1,2-di-O-α-linolenoyl-3-O-β-galactopyranosyl-sn-glycerol] | decreased significantly | less compared with the tumor control group | not detectable | less compared with the tumor control group | significantly inhibited | significant tumor volume reduction | decreased significantly | higher caspase-3 expression | increased expression of cleaved caspase-3 | significantly inhibited | decreased in a dose-dependent manner | IC50 [1]: 55 µM; metastatic tumor nodules in lung (H&E) ([3]; low dose: dLGG 5 mg/kg, CR-API 200 mg/kg daily o.p.): visible; IC50 [4]: > 100 µM; COX-2 expression level in tumor tissues (COX-2 [5]): dose dependent effect on attenuating the expression levels; CYP2C19 expression level in tumor tissues (CYP2C19): dose dependent effect on attenuating the expression levels; survival ([6]; dLGG5: 5 mg/kg daily o.p., day 30): 100%; reduced tumor volumes compared with the tumor control group ([6]; dLGG5: 5 mg/kg daily o.p., P<0.05): 18%; survival ([6]; dLGG25: 25 mg/kg daily o.p., day 30): 100%; reduced tumor volumes compared with the tumor control group ([6]; dLGG25: 25 mg/kg daily o.p., P<0.05): 47%; IC50 (4T1 TNBC cells): 55 µM; Ki-67 overexpression in tumor tissues (Ki67): attenuated; IC50 [7]: > 100 µM; weight loss ([8]; dLGG 5 and 25 mg/kg, CR-API 200 and 400 mg/kg daily o.p., given alone): No significant weight loss; cell survival [10]: no significant change in cell survival
COc1cccc2c1C(=O)c1c(O)c3c(c(O)c1C2=O)C[C@@](O)(C(=O)CO)C[C@@H]3O[C@H]1C[C@H](N)[C@H](O)[C@H](C)O1 [Dox, doxorubicin, reference compound] | decreased significantly | less compared with the tumor control group | not detectable | less compared with the tumor control group | significantly inhibited | significant tumor volume reduction | decreased significantly | higher caspase-3 expression | increased expression of cleaved caspase-3 | much less or no effect at all | further induce COX-2 expression | reduction in tumor weight ([6]; Dox5: 5 mg/kg every 3 days i.v., day 30, P<0.05): 60%; loss of weight ([8]; Dox5: 5 mg/kg every 3 days i.v., day 30): 10 % of starting body weights
